Experimental data taken from PMC4821443 (MedChemComm, 2015).

Assays:
[1] = test system: breast cancer subpanel (six cell lines); assay: NCI-60 screen, breast cancer subpanel summary; assay type: cell-based; conditions: Homo sapiens, T47D, read-out: GI50 values range, breast cancer subpanel
[2] = molecular target: tubulin (Sus scrofa, UniProt P02550+P02554); assay: In vitro tubulin polymerization assay; assay type: biochemical; conditions: at concentrations as high as 200 µM (data not shown)
[3] = test system: panel of 60 human cancer cell lines; assay: NCI-60 cell line anti-cancer screen, whole panel summary; assay type: cell-based; conditions: read-out: average GI50 value against all the cancer cell lines screened, NCI-60 panel

tubulin, sequence (P02550 whole entry): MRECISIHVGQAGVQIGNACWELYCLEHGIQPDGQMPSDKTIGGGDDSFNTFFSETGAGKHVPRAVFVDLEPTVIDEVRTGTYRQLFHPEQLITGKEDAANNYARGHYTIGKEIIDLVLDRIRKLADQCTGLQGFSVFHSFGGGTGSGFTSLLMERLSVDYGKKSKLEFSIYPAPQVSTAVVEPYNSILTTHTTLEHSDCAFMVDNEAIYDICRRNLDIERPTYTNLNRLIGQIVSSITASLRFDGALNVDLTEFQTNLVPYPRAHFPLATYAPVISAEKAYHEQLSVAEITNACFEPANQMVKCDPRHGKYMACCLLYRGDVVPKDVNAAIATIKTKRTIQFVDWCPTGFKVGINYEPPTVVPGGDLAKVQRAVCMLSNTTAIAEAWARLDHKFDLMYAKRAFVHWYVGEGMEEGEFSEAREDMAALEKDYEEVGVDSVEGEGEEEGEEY
tubulin, sequence (P02554 whole entry): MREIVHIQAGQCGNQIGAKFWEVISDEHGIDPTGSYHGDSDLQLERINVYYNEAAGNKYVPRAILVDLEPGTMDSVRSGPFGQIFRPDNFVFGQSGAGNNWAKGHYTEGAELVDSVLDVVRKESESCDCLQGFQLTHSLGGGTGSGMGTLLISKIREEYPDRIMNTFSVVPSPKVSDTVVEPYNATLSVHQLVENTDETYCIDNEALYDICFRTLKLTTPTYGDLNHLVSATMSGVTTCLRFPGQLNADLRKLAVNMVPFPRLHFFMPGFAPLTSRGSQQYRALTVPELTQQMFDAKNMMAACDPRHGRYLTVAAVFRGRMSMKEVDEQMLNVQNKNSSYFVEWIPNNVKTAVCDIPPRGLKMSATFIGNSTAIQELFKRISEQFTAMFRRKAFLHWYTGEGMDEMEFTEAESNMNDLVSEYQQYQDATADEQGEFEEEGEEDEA

| Structure (SMILES) | GI50 [1] [µM] | inhibition of tubulin polymerization [2] | GI50 [3] [µM] |
| --- | --- | --- | --- |
| COc1ccc(-c2n[nH]nc2-c2csc3ccccc23)cc1OC [Compound 11b] | 0.63 to 3.21 | – | – |
| COc1cc(-c2nn(C)nc2-c2cc3ccccc3s2)cc(OC)c1OC [Compound 9, 4-(benzo[b]thiophen-2-yl)-2-methyl-5-(3,4,5-trimethoxyphenyl)-2H-1,2,3-triazole] | 0.04 to 1.6 | failed to inhibit tubulin polymerization | – |
| COc1cc(OC)cc(-c2n[nH]nc2-c2c[nH]c3ccccc23)c1 [Compound 11e] | 0.017 to 0.076 | – | 0.856 |
| COc1cc(-c2n[nH]nc2-c2cc3ccccc3s2)cc(OC)c1OC [Compound 8a, 4-(benzo[b]thiophen-2-yl)-5-(3,4,5-trimeth-oxyphenyl)-2H-1,2,3-triazole] | ≤ 0.014 | – | – |
| COc1cc(-c2n[nH]nc2-c2c[nH]c3ccccc23)cc(OC)c1OC [Compound 11d] | 0.028 to 0.089 | – | 0.424 |
